This assay relates to HT-29 cells. Kind of assay: MTT cell viability assay, HT-29. Type of assay: cell-based. The note with it: Homo sapiens, 72 h, MTT assay, 3 d treatment, serial dilutions. For orientation: Tetrazolium assays rely on reduction of a dye to a coloured formazan, in cell work by metabolically active cells.
Description: MTT assay was conducted for HT-29 cells after 3 d treatment with indicated compounds with serial dilutions.
MTT assay was conducted for HT-29 (A) and SK-MEL-28 (B) cells after 3 d treatment with DMSO or indicated compounds with serial dilutions. Clonogenic assay was performed in HT-29 (C) and SK-MEL-28 (D) cells for 14 d treatment with DMSO or indicated compounds with 10, 30 and 100 nM, in duplicate, respectively. Cells were then stained by crystal violet.
Cells (2000 cells per well) were seeded into 96-well microplates. After 20 h, cells were treated with 0.1% DMSO or indicated serial dilutions of compounds in duplicate or triplicate for 3 days. Cell viability was tested using MTT (M6494, Thermo Fisher Scientific) or WST-8 reagent (CK04, Dojindo). Briefly, 12 mM MTT was prepared in PBS or WST-8 reagent was warmed up to room temperature. 20 μL MTT or CCK-8 was then added to each well and the plates were kept in incubator at 37° C. for 3 h in the dark. For the WST-8 assay, signal was obtained after the incubation. For the MTT assay, cell medium was replaced with 200 μL of DMSO after the incubation, and then cell plates were kept at 37° C. for another 30 min. Absorbance signals for MTT and WST-8 were read at 540 nm and 450 nm respectively, with 690 nm as reference performed with Infinite F PLEX plate reader (TECAN, Morrisville, NC, USA). GI50 values were analyzed using GraphPad Prism 8 from the data of at least three independent experiments.
HT-29 or SK-MEL-28 cells (300 cells per well) were seeded in 12-well plates. After 20 h, cells were treated with DMSO or indicated concentrations of compounds in duplicate for two weeks. Medium containing indicated compounds was changed every 3 days. Cells were then fixed and stained with the solution containing 6% (v/v) glutaraldehyde (G5882, Sigma-Aldrich) and 0.5% (w/v) crystal violet for 1 h. To remove the background color, the plates with stained cells were immersed in running water until clear colonies were observed. The plates were dried at RT. The staining images were obtained with Epson Perfection V600 Photo.
In general, GI50 refers to the concentration giving 50% growth inhibition. The molecule `O=C1CCC(N2C(=O)c3cccc(NCCCCCNCCCONC(=O)c4ccc(F)c(F)c4Nc4ccc(I)cc4F)c3C2=O)C(=O)N1` (stereo not drawn) [CPD-027, N-(3-((5-((2-(2,6-dioxopiperidin-3-yl)-1,3-dioxoisoindolin-4-yl)amino)pentyl)amino)propoxy)-3,4-difluoro-2-((2-fluoro-4-iodophenyl)amino)benzamide] came in with a concentration for 50% growth inhibition (GI50) of 1.8 ± 0.5 µM.

The molecule `O=C1CCC(N2C(=O)c3ccc(NCCOCCNCCCONC(=O)c4ccc(F)c(F)c4Nc4ccc(I)cc4F)cc3C2=O)C(=O)N1` (stereo not drawn) [CPD-047, N-(3-((2-(2-((2-(2,6-dioxopiperidin-3-yl)-1,3-dioxoisoindolin-5-yl)amino)ethoxy)ethyl)amino)propoxy)-3,4-difluoro-2-((2-fluoro-4-iodophenyl)amino)benzamide] showed a concentration for 50% growth inhibition (GI50) of 1.4 ± 0.7 µM.

With `Cc1ncsc1-c1ccc(CNC(=O)[C@@H]2C[C@@H](O)CN2C(=O)[C@@H](NC(=O)CCCCCCCCCNCCCONC(=O)c2ccc(F)c(F)c2Nc2ccc(I)cc2F)C(C)(C)C)cc1` [CPD-013, (2S,4R)-1-((S)-19-(tert-butyl)-1-(3,4-difluoro-2-((2-fluoro-4-iodophenyl)amino)phenyl)-1,17-dioxo-3-oxa-2,7,18-triazaicosan-20-oyl)-4-hydroxy-N-(4-(4-methylthiazol-5-yl)benzyl)pyrrolidine-2-carboxamide], it took 0.5 ± 0.03 µM to inhibit growth by half (GI50).

In turn, `Cc1ncsc1-c1ccc(CNC(=O)[C@@H]2C[C@@H](O)CN2C(=O)[C@@H](NC(=O)CCNCCCONC(=O)c2ccc(F)c(F)c2Nc2ccc(I)cc2F)C(C)(C)C)cc1` [CPD-006, (2S,4R)-1-((S)-12-(tert-Butyl)-1-(3,4-difluoro-2-((2-fluoro-4-iodophenyl)amino)phenyl)-1,10-dioxo-3-oxa-2,7,11-triazatridecan-13-oyl)-4-hydroxy-N-(4-(4-methylthiazol-5-yl)benzyl)pyrrolidine-2-carboxamide] displayed a GI50 of 5 ± 1.1 µM.

In the case of `O=C1CCC(N2C(=O)c3ccc(NCCOCCOCCNCCCONC(=O)c4ccc(F)c(F)c4Nc4ccc(I)cc4F)cc3C2=O)C(=O)N1` (stereo not drawn) [CPD-048, N-(3-((2-(2-(2-((2-(2,6-dioxopiperidin-3-yl)-1,3-dioxoisoindolin-5-yl)amino)ethoxy)ethoxy)ethyl)amino)propoxy)-3,4-difluoro-2-((2-fluoro-4-iodophenyl)amino)benzamide], the GI50 amounted to 1.1 ± 0.3 µM.

`Cc1ncsc1-c1ccc(CNC(=O)[C@@H]2C[C@@H](O)CN2C(=O)[C@@H](NC(=O)CCCCCNCCCONC(=O)c2ccc(F)c(F)c2Nc2ccc(I)cc2F)C(C)(C)C)cc1` [CPD-009, (2S,4R)-1-((S)-15-(tert-butyl)-1-(3,4-difluoro-2-((2-fluoro-4-iodophenyl)amino)phenyl)-1,13-dioxo-3-oxa-2,7,14-triazahexadecan-16-oyl)-4-hydroxy-N-(4-(4-methylthiazol-5-yl)benzyl)pyrrolidine-2-carboxamide] registered a GI50 of 2.1 ± 0.1 µM.

Take `Cc1ncsc1-c1ccc(CNC(=O)[C@@H]2C[C@@H](O)CN2C(=O)[C@@H](NC(=O)CNCCCONC(=O)c2ccc(F)c(F)c2Nc2ccc(I)cc2F)C(C)(C)C)cc1` [CPD-005, (2S,4R)-1-((S)-11-(tert-Butyl)-1-(3,4-difluoro-2-((2-fluoro-4-iodophenyl)amino)phenyl)-1,9-dioxo-3-oxa-2,7,10-triazadodecan-12-oyl)-4-hydroxy-N-(4-(4-methylthiazol-5-yl)benzyl)pyrrolidine-2-carboxamide]: the GI50 was determined as 1.8 ± 0.4 µM.

Regarding `Cc1ncsc1-c1ccc(CNC(=O)[C@@H]2C[C@@H](O)CN2C(=O)[C@@H](NC(=O)CCOCCNCCCONC(=O)c2ccc(F)c(F)c2Nc2ccc(I)cc2F)C(C)(C)C)cc1` [CPD-003, (2S,4R)-1-((S)-15-(tert-Butyl)-1-(3,4-difluoro-2-((2-fluoro-4-iodophenyl)amino)phenyl)-1,13-dioxo-3,10-dioxa-2,7,14-triazahexadecan-16-oyl)-4-hydroxy-N-(4-(4-methylthiazol-5-yl)benzyl)pyrrolidine-2-carboxamide], the GI50 stood at 4.8 ± 0.7 µM.

With `O=C1CCC(N2C(=O)c3cccc(NCCCCCCNCCCONC(=O)c4ccc(F)c(F)c4Nc4ccc(I)cc4F)c3C2=O)C(=O)N1` (stereo not drawn) [CPD-028, N-(3-((6-((2-(2,6-dioxopiperidin-3-yl)-1,3-dioxoisoindolin-4-yl)amino)hexyl)amino)propoxy)-3,4-difluoro-2-((2-fluoro-4-iodophenyl)amino)benzamide], the GI50 is 3.8 ± 1.7 µM.

As to `Cc1ncsc1-c1ccc([C@H](C)NC(=O)[C@@H]2C[C@@H](O)CN2C(=O)[C@@H](NC(=O)CCCCCCCCCCCNCCCONC(=O)c2ccc(F)c(F)c2Nc2ccc(I)cc2F)C(C)(C)C)cc1` [CPD-033, (2S,4R)-1-((S)-21-(tert-butyl)-1-(3,4-difluoro-2-((2-fluoro-4-iodophenyl)amino)phenyl)-1,19-dioxo-3-oxa-2,7,20-triazadocosan-22-oyl)-4-hydroxy-N—((S)-1-(4-(4-methylthiazol-5-yl)phenyl)ethyl)pyrrolidine-2-carboxamide], the GI50 amounted to 0.099 ± 0.008 µM.

Molecule `O=C1CCC(N2C(=O)c3cccc(NCCCCCCCNCCCONC(=O)c4ccc(F)c(F)c4Nc4ccc(I)cc4F)c3C2=O)C(=O)N1` (stereo not drawn) [CPD-029, N-(3-((7-((2-(2,6-dioxopiperidin-3-yl)-1,3-dioxoisoindolin-4-yl)amino)heptyl)amino)propoxy)-3,4-difluoro-2-((2-fluoro-4-iodophenyl)amino)benzamide] had a 50% growth inhibitory concentration (GI50) of 4.5 ± 1.9 µM.

Take `Cc1ncsc1-c1ccc([C@H](C)NC(=O)[C@@H]2C[C@@H](O)CN2C(=O)[C@@H](NC(=O)CCCCCCCCCNCCCONC(=O)c2ccc(F)c(F)c2Nc2ccc(I)cc2F)C(C)(C)C)cc1` [CPD-036, (2S,4R)-1-((S)-19-(tert-butyl)-1-(3,4-difluoro-2-((2-fluoro-4-iodophenyl)amino)phenyl)-1,17-dioxo-3-oxa-2,7,18-triazaicosan-20-oyl)-4-hydroxy-N—((S)-1-(4-(4-methylthiazol-5-yl)phenyl)ethyl)pyrrolidine-2-carboxamide]: the GI50 turned out to be 0.24 ± 0.055 µM.

Molecule `O=C1CCC(N2C(=O)c3cccc(NCCCCCCCCNCCCONC(=O)c4ccc(F)c(F)c4Nc4ccc(I)cc4F)c3C2=O)C(=O)N1` (stereo not drawn) [CPD-030, N-(3-((8-((2-(2,6-dioxopiperidin-3-yl)-1,3-dioxoisoindolin-4-yl)amino)octyl)amino)propoxy)-3,4-difluoro-2-((2-fluoro-4-iodophenyl)amino)benzamide] came in with a GI50 of 3.5 ± 0.9 µM.

`Cc1ncsc1-c1ccc(CNC(=O)[C@@H]2C[C@@H](O)CN2C(=O)[C@@H](NC(=O)COCCNCCCONC(=O)c2ccc(F)c(F)c2Nc2ccc(I)cc2F)C(C)(C)C)cc1` [CPD-002, (2S,4R)-1-((S)-14-(tert-Butyl)-1-(3,4-difluoro-2-((2-fluoro-4-iodophenyl)amino)phenyl)-1,12-dioxo-3,10-dioxa-2,7,13-triazapentadecan-15-oyl)-4-hydroxy-N-(4-(4-methylthiazol-5-yl)benzyl)pyrrolidine-2-carboxamide] displayed a GI50 of 4 ± 0.2 µM.

For the molecule `Cc1ncsc1-c1ccc(CNC(=O)[C@@H]2C[C@@H](O)CN2C(=O)[C@@H](NC(=O)CCCCCCCNCCCONC(=O)c2ccc(F)c(F)c2Nc2ccc(I)cc2F)C(C)(C)C)cc1` [CPD-011, (2S,4R)-1-((S)-17-(tert-butyl)-1-(3,4-difluoro-2-((2-fluoro-4-iodophenyl)amino)phenyl)-1,15-dioxo-3-oxa-2,7,16-triazaoctadecan-18-oyl)-4-hydroxy-N-(4-(4-methylthiazol-5-yl)benzyl)pyrrolidine-2-carboxamide], halving of growth (GI50) required 0.5 ± 0.2 µM.

With `O=C1CCC(N2C(=O)c3cccc(NCCOCCOCCOCCOCCNCCCONC(=O)c4ccc(F)c(F)c4Nc4ccc(I)cc4F)c3C2=O)C(=O)N1` (stereo not drawn) [CPD-022, N-((1-((2-(2,6-dioxopiperidin-3-yl)-1,3-dioxoisoindolin-4-yl)amino)-3,6,9,12-tetraoxa-15-azaoctadecan-18-yl)oxy)-3,4-difluoro-2-((2-fluoro-4-iodophenyl)amino)benzamide], it took 0.6 ± 0.09 µM to inhibit growth by half (GI50).

Take `O=C1CCC(N2C(=O)c3ccc(NCCCCNCCCONC(=O)c4ccc(F)c(F)c4Nc4ccc(I)cc4F)cc3C2=O)C(=O)N1` (stereo not drawn) [CPD-042, N-(3-((4-((2-(2,6-dioxopiperidin-3-yl)-1,3-dioxoisoindolin-5-yl)amino)butyl)amino)propoxy)-3,4-difluoro-2-((2-fluoro-4-iodophenyl)amino)benzamide]: the 50% growth inhibitory concentration (GI50) came to 1 ± 0.4 µM.

The molecule `Cc1ncsc1-c1ccc(CNC(=O)[C@@H]2C[C@@H](O)CN2C(=O)[C@@H](NC(=O)CCOCCOCCNCCCONC(=O)c2ccc(F)c(F)c2Nc2ccc(I)cc2F)C(C)(C)C)cc1` [CPD-004, (2S,4R)-1-((S)-18-(tert-Butyl)-1-(3,4-difluoro-2-((2-fluoro-4-iodophenyl)amino)phenyl)-1,16-dioxo-3,10,13-trioxa-2,7,17-triazanonadecan-19-oyl)-4-hydroxy-N-(4-(4-methylthiazol-5-yl)benzyl)pyrrolidine-2-carboxamide] registered a GI50 of 1.6 ± 0.3 µM.

In the case of `O=C1CCC(N2C(=O)c3cccc(NCCCNCCCONC(=O)c4ccc(F)c(F)c4Nc4ccc(I)cc4F)c3C2=O)C(=O)N1` (stereo not drawn) [CPD-025, N-(3-((3-((2-(2,6-dioxopiperidin-3-yl)-1,3-dioxoisoindolin-4-yl)amino)propyl)amino)propoxy)-3,4-difluoro-2-((2-fluoro-4-iodophenyl)amino)benzamide], growth was halved (GI50) at 1.1 ± 0.07 µM.

Molecule `O=C1CCC(N2C(=O)c3cccc(NCCCCNCCCONC(=O)c4ccc(F)c(F)c4Nc4ccc(I)cc4F)c3C2=O)C(=O)N1` (stereo not drawn) [CPD-026, N-(3-((4-((2-(2,6-dioxopiperidin-3-yl)-1,3-dioxoisoindolin-4-yl)amino)butyl)amino)propoxy)-3,4-difluoro-2-((2-fluoro-4-iodophenyl)amino)benzamide] returned a GI50 of 1.9 ± 0.4 µM.

As to `O=C1CCC(N2C(=O)c3ccc(NCCOCCOCCOCCNCCCONC(=O)c4ccc(F)c(F)c4Nc4ccc(I)cc4F)cc3C2=O)C(=O)N1` (stereo not drawn) [CPD-049, N-((1-((2-(2,6-dioxopiperidin-3-yl)-1,3-dioxoisoindolin-5-yl)amino)-3,6,9-trioxa-12-azapentadecan-15-yl)oxy)-3,4-difluoro-2-((2-fluoro-4-iodophenyl)amino)benzamide], growth was halved (GI50) at 1.5 ± 0.5 µM.

Source of the values: patent US12103924B2, “Mitogen-activated protein kinase kinase (MEK) degradation compounds and methods of use” (Icahn School of Medicine at Mount Sinai, priority 2020, dated 2024).
